From patent US4262128A, “Nitrogen heterocycles” (Burroughs Wellcome Co., priority 1976, dated 1981)

How the values were obtained:
[1] = test system: human platelet rich plasma (PRP); assay: Inhibition of ADP-stimulated platelet aggregation (Born aggregometer); type: cell-based
Experimental: Aggregation of platelets in 1 ml. of fresh humam platelet rich plasma (PRP) was monitored in a Born aggregometer.
The compound to be tested was added to the PRP at the desired concentration, and the resulting mixture incubated at 37° C. for 1 minute after which platelet aggregation was stimulated by the addition of adenosine diphosphate (ADP) to a concentration of 5 μM.
The anti-aggregatory effect of the compound was assessed by measuring the percentage inhibition of platelet aggregation in the presence of the compound as compared when it was completely absent.

[2] = test system: electrically-induced arterial thrombosis; assay: Electrically-induced arterial thrombosis in anaesthetised rabbits; type: in vivo, rabbit; details: intravenous infusion 250 μg/min
[3] = test system: dogs; assay: Urine volume in dogs, intravenous infusion; type: in vivo, dog
[4] = test system: aspirin-induced gastric ulceration; assay: Aspirin-induced gastric ulceration / lesions in rats; type: in vivo, rat; details: for reduction of aspirin-induced gastric lesions: general statement, no dose
[5] = test system: pentagastrin-induced gastric acid secretion; assay: Pentagastrin-induced gastric acid secretion in rats; type: in vivo, rat
[6] = test system: male normotensive rats Wistar (Charles River) strain; assay: Cardiovascular effects in rats (fall in blood pressure, anaesthetised normotensive rats); type: in vivo, rat; details: i.v.
Experimental: Male normotensive rats Wistar (Charles River) strain, (250-350 g) were anesthetised (chloroform) prior to cannulation of the left femoral vein and anaesthesia maintained by intravenous chloralose (60 mg/kg). Pulsatile blood pressure was recorded from the left femoral artery with an electronic transducer (Bell and Howell Type 4-327 L221) and integrated heart rate was measured with a cardiotachometer triggered from the arterial pressure waves.
The test compound was administered as a solution in physiological saline by intravenous injection via the femoral cannula. The responses recorded were allowed to return to the preinjection levels between successive administrations.

[7] = test system: histamine-induced broncho-constriction; assay: Histamine-induced broncho-constriction; type: in vivo, guinea-pig
[8] = test system: vascular smooth muscle; assay: Relaxation of vascular smooth muscle; details: similar to prostaglandin A and E series; general statement
[9] = test system: rat; assay: Cardiovascular effects in the rat (blood pressure and heart rate, with and without propranolol or atropine); type: in vivo
[10] = Compound 14 (m.p. 96°-98°) 2 mg/kg i.v. with propranolol 3 mg/kg
[11] = Compound 14 (m.p. 96°-98°) 2 mg/kg i.v., no propranolol
[12] = Compound 14 (m.p. 96°-98°) 5 mg/kg i.v. with propranolol 3 mg/kg
[13] = Compound 14 (m.p. 96°-98°) 5 mg/kg i.v., no propranolol

Question: With CCCCCC(O)CCN1C(=O)NC(=O)C1CCCCCCC(=O)O (stereo not shown) [Compound 2 (m.p. 76°-78°), 5-(6-Carboxyhexyl)-1-(3-hydroxyoctyl)hydantoin] as the compound, how does the “relative potency with respect to PGE1 (inhibition of platelet aggregation)” value [1] read?
Answer: Its value is 12.5 ×.

Question: What about the “reduction of electrically-induced arterial thrombosis” value [2] of the same compound?
Answer: Its value is “reduce electrically-induced arterial thrombosis”.

Question: CCCCCC(O)CCN1C(=O)NC(=O)C1CCCCCCC(=O)O (stereo not shown) [Compound 2, 5-(6-Carboxyhexyl)-1-(3-hydroxyoctyl)hydantoin] was tested. Which “increase of urine volume” value [3] did it give?
Answer: Its value is “increase urine volume”.

Question: And the “reduction of aspirin-induced gastric lesions” value [4]?
Answer: The value was “reduce the formation of aspirin-induced gastric lesions”.

Question: And the “inhibition of pentagastrin-induced gastric acid secretion” value ([5]; general statement, no dose)?
Answer: Its value is “inhibit pentagastrin-induced gastric acid secretion”.

Question: And the “inhibition of pentagastrin-induced gastric acid secretion” value ([5]; intravenous dose of 30 μg/kg, rats)?
Answer: The value was “completely inhibited”.

Question: And the “Mean fall in blood pressure” value ([6]; 10 μg/kg)?
Answer: The value was 14 mmHg.

Question: What about the “Mean fall in blood pressure” value ([6]; 1 mg/kg) of the same compound?
Answer: The value was 42 mmHg.

Question: With CC(C)(C)C(O)CCN1C(=O)NC(=O)C1CCCCCCC(=O)O (stereo not shown) [Compound 4 (m.p. 144°-146°), 5-(6-Carboxyhexyl)-1-(3-hydroxy-4,4-dimethylpentyl)hydantoin] as the compound, how does the “relative potency with respect to PGE1 (inhibition of platelet aggregation)” value [1] read?
Answer: Its value is 0.05 ×.

Question: How did the “Mean fall in blood pressure” value ([6]; 3 mg/kg) turn out when CCCCCCC(O)CCN1C(=O)NC(=O)C1CCCCCCC(=O)O (stereo not shown) [Compound 6, 5-(6-Carboxyhexyl)-1-(3-hydroxynonyl)hydantoin] was run?
Answer: Its value is 40 mmHg.

Question: For CCCCC(C)(C)C(O)CCN1C(=O)NC(=O)C1CCCCCCC(=O)O (stereo not shown) [Compound 9, 5-(6-Carboxyhexyl)-1-(3-hydroxy-4,4-dimethyloctyl)hydantoin], which “antagonism of histamine induced broncho-constriction (PGE1-like)” value ([7]; general statement, no dose) is on record?
Answer: Its value is “mimics the effect of PGE1 of antagonising histamine induced broncho-constriction”.

Question: What about the “antagonism of histamine-induced broncho-constriction” value ([7]; intravenous injection 50 μg/kg, anaesthetised guinea-pigs) of the same compound?
Answer: The value was “completely anatagonise”.

Question: What about the “Mean fall in blood pressure” value ([6]; 3 mg/kg) of the same compound?
Answer: Its value is 22 mmHg.

Question: And the “relaxation of vascular smooth muscle” value [8]?
Answer: The value was “relaxation of vascular smooth muscle”.

Question: For O=C(O)CCCCCCC1C(=O)NC(=O)N1CCC(O)C1CCC1 (stereo not shown) [Compound 11 (114°-116°), 5-(6-Carboxyhexyl)-1-(3-hydroxy-3-cyclobutylpropyl)hydantoin], which “relative potency with respect to PGE1 (inhibition of platelet aggregation)” value [1] is on record?
Answer: The value was 5.2 ×.

Question: Which results are given for O=C(O)CCCCCCC1C(=O)NC(=O)N1CCC(O)C1CCCC1 (stereo not shown) [Compound 12 (m.p. 116-117°), 5-(6-Carboxyhexyl)-1-(3-hydroxy-3-cyclopentylpropyl)hydantoin]?
Answer: inhibition at 0.0005 µg/mL ([1]; Homo sapiens, Platelet, 0.5 ng/ml, ADP 5 μM): 25%; inhibition at 0.001 µg/mL ([1]; Homo sapiens, Platelet, 1.0 ng/ml, ADP 5 μM): 51%; inhibition at 0.002 µg/mL ([1]; Homo sapiens, Platelet, 2.0 ng/ml, ADP 5 μM): 79%; inhibition at 0.004 µg/mL ([1]; Homo sapiens, Platelet, 4.0 ng/ml, ADP 5 μM): 94%; relative potency with respect to PGE1 (inhibition of platelet aggregation) [1]: 12.5 ×

Question: With O=C(O)CCCCCCC1C(=O)NC(=O)N1CCC(O)C1CCCCC1 (stereo not shown) [Compound 14 (m.p. 96°-98°), 5-(6-Carboxyhexyl)-1-(3-hydroxy-3-cyclohexylpropyl)hydantoin] as the compound, how does the “hypotensive effect in the rat” value ([9]; i.v., in words) read?
Answer: Its value is “substantial hypotensive effect”.

Question: And the “tachycardia accompanying the hypotension” value ([9]; i.v., in words)?
Answer: Its value is “accompanied by tachycardia”.

Question: And the “relative potency with respect to PGE1 (inhibition of platelet aggregation)” value [1]?
Answer: The value was 16 ×.

Question: How did the “Mean fall b.p. (±SD)” value [9, 10] turn out when O=C(O)CCCCCCC1C(=O)NC(=O)N1CCC(O)C1CCCCC1 (stereo not shown) [Compound 14, 5-(6-Carboxyhexyl)-1-(3-hydroxy-3-cyclohexylpropyl)hydantoin] was run?
Answer: The value was 28 ± 5.

Question: And the “Mean rise hrt.rate (±S.D)” value [9, 10]?
Answer: Its value is 6.5 ± 3.

Question: What about the “Mean fall b.p. (±SD)” value [9, 11] of the same compound?
Answer: Its value is 28 ± 6.5.

Question: And the “Mean rise hrt.rate (±S.D)” value [9, 11]?
Answer: The value was 44 ± 7.

Question: What about the “Mean fall b.p. (±SD)” value [9, 12] of the same compound?
Answer: Its value is 27 ± 7.5.

Question: And the “Mean rise hrt.rate (±S.D)” value [9, 12]?
Answer: The value was 11.5 ± 2.5.

Question: And the “Mean fall b.p. (±SD)” value [9, 13]?
Answer: The value was 34 ± 3.

Question: And the “Mean rise hrt.rate (±S.D)” value [9, 13]?
Answer: The value was 47.5 ± 2.5.

Question: With CCCCCC(=O)CCN1C(=O)N(C)C(=O)C1CCCCCCC(=O)O (stereo not shown) [Compound 90, 5-(6-Carboxyhexyl)-3-methyl-1-(3-oxooctyl)hydantoin] as the compound, how does the “reduction of aspirin-induced gastric lesions” value [4] read?
Answer: The value was “reduce the formation of aspirin-induced gastric lesions”.

Question: What about the “protection against aspirin-induced gastric ulceration” value ([4]; oral dose of 1 mg/kg) of the same compound?
Answer: The value was 80%.

Question: What about the “inhibition of pentagastrin-induced gastric acid secretion” value ([5]; general statement, no dose) of the same compound?
Answer: The value was “inhibit pentagastrin-induced gastric acid secretion”.

Question: For CC(C)(Cc1ccccc1)C(O)CCN1C(=O)NC(=O)C1CCCCCCC(=O)O (stereo not shown) [Example 1, 5-(6-carboxyhexyl)-1-(3-hydroxy-4,4-dimethyl-5-phenylpentyl)-hydantoin], which “relaxation of vascular smooth muscle” value [8] is on record?
Answer: Its value is “relaxation of vascular smooth muscle”.

Question: O=C(O)CCCCCCC1C(=O)NC(=O)N1CCCCOc1ccccc1 (stereo not shown) [Example 79b, 5-(6-carboxyhexyl)-1-(4-phenoxybutyl)hydantoin] was tested. Which “reduction of aspirin-induced gastric lesions” value [4] did it give?
Answer: The value was “reduce the formation of aspirin-induced gastric lesions”.

Question: What about the “inhibition of pentagastrin-induced gastric acid secretion” value ([5]; general statement, no dose) of the same compound?
Answer: Its value is “inhibit pentagastrin-induced gastric acid secretion”.

Question: Which results are given for CCCCCC(=O)CCN1C(=O)NC(=O)C1CCCCCCC(=O)O (stereo not shown) [Example 88, 5-(6-carboxyhexyl)-1-(3-oxooctyl)hydantoin]?
Answer: reduction of aspirin-induced gastric lesions [4]: reduce the formation of aspirin-induced gastric lesions; inhibition of pentagastrin-induced gastric acid secretion ([5]; general statement, no dose): inhibit pentagastrin-induced gastric acid secretion

Question: For CCCCC[C@H](O)/C=C/[C@H]1[C@H](O)CC(=O)[C@@H]1CCCCCCC(=O)O [PGE1, reference compound], which inhibition at 0.015 µg/mL ([1]; Homo sapiens, Platelet, 15 ng/ml, ADP 5 μM) is on record?
Answer: Its inhibition at 0.015 µg/mL is 33%.

Question: And the inhibition at 0.02 µg/mL ([1]; Homo sapiens, Platelet, 20 ng/ml, ADP 5 μM)?
Answer: The inhibition at 0.02 µg/mL was 47%.

Question: What about the inhibition at 0.03 µg/mL ([1]; Homo sapiens, Platelet, 30 ng/ml, ADP 5 μM) of the same compound?
Answer: The inhibition at 0.03 µg/mL was 63%.

Question: What about the inhibition at 0.04 µg/mL ([1]; Homo sapiens, Platelet, 40 ng/ml, ADP 5 μM) of the same compound?
Answer: The inhibition at 0.04 µg/mL was 69%.

Question: Which “Mean fall in blood pressure” value ([6]; 4 μg/kg) does the source give for CCCCC[C@H](O)/C=C/[C@H]1[C@H](O)CC(=O)[C@@H]1C/C=C\CCCC(=O)O [PGE2, reference compound] here?
Answer: Its value is 28 mmHg.

Question: And the “Mean fall in blood pressure” value ([6]; 16 μ/kg)?
Answer: The value was 44 mmHg.

Question: With CN1[C@@H]2CC[C@H]1C[C@@H](OC(=O)C(CO)c1ccccc1)C2 (stereo partly shown) [atropine, reference compound] as the compound, how does the “effect of concurrent atropine on hypotensive effect of Compound 14” value ([9]; atropine 2 mg/kg i.v.) read?
Answer: Its value is “did not significantly affect”.

Question: And the “effect of concurrent atropine on tachycardiac effect of Compound 14” value ([9]; atropine 2 mg/kg i.v.)?
Answer: The value was “did not significantly affect”.

Question: How did the “effect of concurrent propranolol on hypotensive action of Compound 14” value ([9]; concurrent dose of propranolol) turn out when CC(C)NCC(O)COc1cccc2ccccc12 (stereo not shown) [propranolol, reference compound] was run?
Answer: Its value is “without significantly effecting the hypotensive action”.

Question: And the “effect of concurrent propranolol on tachycardia caused by Compound 14” value ([9]; concurrent dose of propranolol)?
Answer: The value was “considerably reduced the tachycardia”.
